In patent US10294243B2, “Bicyclic compounds as pesticides” (BAYER CROPSCIENCE AKTIENGESELLSCHAFT, priority 2014, dated 2019):
Like-named read-outs stand apart in the source and are kept apart here.

Tests used:
[1] = log P by HPLC on reversed-phase C18 columns (OECD Guideline 117); method [a] acidic pH 2.7, method [b] neutral pH 7.8; format: physicochemical; conditions: for chromatographic logP: reversed-phase C18 HPLC column
Meloidogyne incognita = Meloidogyne incognita test; format: in vivo; conditions: application rate 20 ppm, lettuce, after 14 days
Method: Meloidogyne Incognita Test
Solvent: 125.0 parts by weight of acetone
Vessels are filled with sand, active compound solution, an egg/larvae suspension of the southern root-knot nematode (Meloidogyne incognita) and lettuce seeds. The lettuce seeds germinate and the plants develop. The galls develop on the roots.
After 14 days, the nematicidal efficacy in % is determined by the formation of galls. 100% means that no galls were found; 0% means that the number of galls on the treated plants corresponds to the untreated control.

Myzus persicae [2] = assay: Myzus persicae - spray test (Chinese cabbage leaf discs); format: in vivo; conditions: application rate 500 g/ha, after 6 days; for pest or weed control at 500 g/ha: Myzus persicae, foliar, 144 h, read-out: efficacy (aphids killed)
Method: Myzus persicae—Spray Test
Solvent: 78 parts by weight of acetone • • 1.5 parts by weight of dimethylformamide
(§1) Emulsifier: alkylaryl polyglycol ether
(§2) To produce further test concentrations, the preparation is diluted with emulsifier-containing water.
After 6 days, the efficacy in % is determined 100% means that all the aphids have been killed; 0% means that none of the aphids have been killed.

Myzus persicae [3] = assay: Myzus persicae - spray test (bell pepper plants); format: in vivo; conditions: application rate 4 ppm, after 6 days
Method: Myzus persicae—Spray Test Solvent: 7 parts by weight of dimethylformamide Emulsifier: alkylaryl polyglycol ether […] […] If the addition of ammonium salts or/and penetrants is required, these are each added in a concentration of 1000 ppm to the preparation solution. Bell pepper plants (Capsicum annuum) severely infested with the green peach aphid (Myzus persicae) are treated by spraying with the active compound preparation in the desired concentration.

Phaedon cochleariae = Phaedon cochleariae - spray test; format: in vivo; conditions: application rate 500 g/ha, Chinese cabbage leaf discs, after 7 days
Source text: Phaedon cochleariae—Spray Test
as §1

Tetranychus urticae = Tetranychus urticae - spray test, OP-resistant; format: in vivo; conditions: application rate 500 g/ha, bean leaf discs, after 6 days
Method: Tetranychus urticae—Spray Test, OP-Resistant
as §1
After 6 days, the efficacy in % is determined. 100% means that all the spider mites have been killed; 0% means that none of the spider mites have been killed.

Boophilus microplus = Boophilus microplus - injection test; format: in vivo; conditions: application rate 20 μg/animal, injection into engorged adult female cattle ticks, assessed after 7 days
Method: Boophilus microplus—Injection Test
Solvent: dimethyl sulphoxide
To produce a suitable preparation of active compound, 10 mg of active compound are mixed with 0.5 ml of solvent and the concentrate is diluted with solvent to the desired concentration.
1 μl of the active compound solution is injected into the abdomen of 5 engorged adult female cattle ticks (Boophilus microplus). The animals are transferred into dishes and kept in a climate-controlled room.
Efficacy is assessed after 7 days by laying of fertile eggs. Eggs which are not visibly fertile are stored in a climate-controlled cabinet until the larvae hatch after about 42 days. An efficacy of 100% means that none of the ticks has laid any fertile eggs; 0% means that all the eggs are fertile.

Spodoptera frugiperda = conditions: application rate 500 g/ha, maize leaf discs, after 7 days
Method: Spodoptera frugiperda—Spray Test
Solvent: 78.0 parts by weight of acetone • • 1.5 parts by weight of dimethylformamide
as §1, §2
After 7 days, the efficacy in % is determined 100% means that all the caterpillars have been killed; 0% means that no caterpillars have been killed.

[4] = HPLC reversed-phase C18, method [a] acidic pH 2.7, read-out: logP[a]
[5] = HPLC reversed-phase C18, method [b] neutral pH 7.8, read-out: logP[b]
[6] = HPLC reversed-phase C18, method [a] acidic pH 2.7
[7] = HPLC reversed-phase C18, method [b] neutral pH 7.8

O=c1c2sc(-c3cccnc3)nc2ncn1-c1ccc([S+]([O-])C(F)(F)F)cc1 (stereo not shown) [Compound 63, 2-(Pyridin-3-yl)-6-{4-[(trifluoromethyl)sulphinyl]phenyl}[1,3]thiazolo[4,5-d]pyrimidin-7(6H)-one]
chromatographic logP [1, 4]: 2.03 | chromatographic logP [1, 5]: 1.99 | nematicidal efficacy (formation of galls) (Meloidogyne incognita): 90% | pest or weed control at 500 g/ha (Myzus persicae [2]): 90%

COc1cccc(-n2cnc3nc(-c4cccnc4)sc3c2=O)c1 [Compound 10, 6-(3-Methoxyphenyl)-2-(pyridin-3-yl)[1,3]thiazolo[4,5-d]pyrimidin-7(6H)-one]
efficacy (kill of aphids) (Myzus persicae [3]): 96% | chromatographic logP [1, 4]: 1.73 | chromatographic logP [1, 5]: 1.76

O=c1c2sc(-c3cccnc3)nc2ncn1-c1ccc(SC(F)(F)F)cc1 [Compound 62, 2-(Pyridin-3-yl)-6-{4-[(trifluoromethyl)sulphanyl]phenyl}[1,3]thiazolo[4,5-d]pyrimidin-7(6H)-one]
efficacy (beetle larvae killed) (Phaedon cochleariae): 100% | chromatographic logP [1, 4]: 2.71 | chromatographic logP [1, 5]: 2.69 | pest or weed control at 500 g/ha (Myzus persicae [2]): 90%

Cc1cc(F)c(-n2c(C)nc3nc(-c4cccnc4)sc3c2=O)cc1[S+]([O-])CC(F)(F)F (stereo not shown) [Compound 57, 6-{2-Fluoro-4-methyl-5-[(2,2,2-trifluoroethyl)sulphinyl]phenyl}-5-methyl-2-(pyridin-3-yl)[1,3]thiazolo[4,5-d]pyrimidin-7(6H)-one]
chromatographic logP [1, 4]: 2.25 | chromatographic logP [1, 5]: 2.05 | pest or weed control at 500 g/ha (Myzus persicae [2]): 100% | efficacy (spider mites killed) (Tetranychus urticae): 90% | efficacy (laying of fertile eggs) (Boophilus microplus): 100%

O=c1c2sc(-c3cccnc3)nc2ncn1-c1cc(SCC2CC2)ccc1F [Compound 44]
efficacy (kill of aphids) (Myzus persicae [3]): 100% | logP[a] [1, 6]: 2.91 | logP[b] [1, 7]: 3.00

Cn1ccc(Cn2cnc3nc(-c4cccnc4)sc3c2=O)n1 [Compound 37]
efficacy (beetle larvae killed) (Phaedon cochleariae): 100% | logP[a] [1, 6]: 0.97 | logP[b] [1, 7]: 1.08 | efficacy (caterpillars killed) (Spodoptera frugiperda): 100% | efficacy (aphids killed) (Myzus persicae [2]): 90%

Cc1ccc(-n2cnc3nc(-c4cccnc4)sc3c2=O)cc1 [Compound 11]
efficacy (beetle larvae killed) (Phaedon cochleariae): 100% | logP[a] [1, 6]: 1.92 | logP[b] [1, 7]: 1.96 | efficacy (caterpillars killed) (Spodoptera frugiperda): 100% | efficacy (spider mites killed) (Tetranychus urticae): 90%

Cc1cc(F)c(-n2cnc3nc(-c4cccnc4)sc3c2=O)cc1SCC(F)(F)F [Compound 21, 6-{2-Fluoro-4-methyl-5-[(2,2,2-trifluoroethyl)sulphanyl]phenyl}-2-(pyridin-3-yl)[1,3]thiazolo[4,5-d]pyrimidin-7(6H)-one]
chromatographic logP [1, 4]: 2.95 | chromatographic logP [1, 5]: 2.91 | pest or weed control at 500 g/ha (Myzus persicae [2]): 90%

O=c1c2sc(-c3cccnc3)nc2ncn1CC(F)(F)F [Compound 5, 2-(Pyridin-3-yl)-6-(2,2,2-trifluoroethyl)[1,3]thiazolo[4,5-d]pyrimidin-7(6H)-one]
chromatographic logP [1, 4]: 1.54 | pest or weed control at 500 g/ha (Myzus persicae [2]): 100%

O=c1c2sc(-c3cccnc3)nc2ncn1-c1ccc(F)c(SC(F)(F)F)c1 [Compound 17]
logP[a] [1, 6]: 2.70 | logP[b] [1, 7]: 2.66 | efficacy (aphids killed) (Myzus persicae [2]): 90%

Cc1cc(C)c(-n2cnc3nc(-c4cncnc4)sc3c2=O)cc1SCC(F)(F)F [Compound 76, 6-{2,4-Dimethyl-5-[(2,2,2-trifluoroethyl)sulphanyl]phenyl}-2-(pyrimidin-5-yl)[1,3]thiazolo[4,5-d]pyrimidin-7(6H)-one]
chromatographic logP [1, 4]: 2.88 | chromatographic logP [1, 5]: 2.77 | pest or weed control at 500 g/ha (Myzus persicae [2]): 90%

Cc1cc(SC(F)(F)F)ccc1-n1cnc2nc(-c3cccnc3)sc2c1=O [Compound 64]
logP[a] [1, 6]: 2.91 | logP[b] [1, 7]: 2.89 | efficacy (aphids killed) (Myzus persicae [2]): 100%

Cc1cc(F)c(-n2cnc3nc(-c4ccc[n+]([O-])c4)sc3c2=O)cc1[S+]([O-])CC(F)(F)F (stereo not shown) [Compound 23, 6-{2-Fluoro-4-methyl-5-[(2,2,2-trifluoroethyl)sulphinyl]phenyl}-2-(1-oxidopyridin-3-yl)[1,3]thiazolo[4,5-d]pyrimidin-7(6H)-one]
chromatographic logP [1, 4]: 1.49 | chromatographic logP [1, 5]: 1.45 | pest or weed control at 500 g/ha (Myzus persicae [2]): 100%

CN(C)C(=O)CSc1cccc(-n2cnc3nc(-c4cccnc4)sc3c2=O)c1 [Compound 52]
logP[a] [1, 6]: 1.57 | logP[b] [1, 7]: 1.55 | efficacy (aphids killed) (Myzus persicae [2]): 90%

O=c1c2sc(-c3cccnc3)nc2ncn1-c1cc(SCC(F)(F)F)ccc1F [Compound 46]
logP[a] [1, 6]: 2.60 | logP[b] [1, 7]: 2.56 | efficacy (aphids killed) (Myzus persicae [2]): 90%

O=c1c2sc(-c3cccnc3)nc2ncn1-c1cccc(OCC(F)(F)F)c1 [Compound 41]
logP[a] [1, 6]: 2.33 | logP[b] [1, 7]: 2.34 | efficacy (aphids killed) (Myzus persicae [2]): 90%

O=c1c2sc(-c3cccnc3)nc2ncn1-c1cc(SCC(F)(F)F)c(Cl)cc1Cl [Compound 51]
logP[a] [1, 6]: 3.25 | logP[b] [1, 7]: 3.17 | efficacy (aphids killed) (Myzus persicae [2]): 100%
